The values that follow are results of earlier work, collected in patent US20040110696A1, “GENE THERAPY SYSTEM AND METHOD USING ALPHA-MSH AND ITS DERIVATIVES” (priority 2003, published 2004).

Where no end group is shown, it is not given here.

For one data set, the system named is fever. The conditions noted are these: for antipyretic potency: relative to the α-MSH(11-13) sequence; for antipyretic activity: rabbit, in vivo.
Another data set deals with inflammation. The conditions noted are these: for anti-inflammatory activity: in vitro and in vivo.

In the case of “8-13 sequence: α-MSH fragment, residues 8-13 (RWGKPV; ends and bridges not checked; UniProt P01189 145-150, looked up, fragment)”, in the data set with fever, the antipyretic potency result is listed as “greater than that of the 11-13 sequence”.

With “9-13 sequence: α-MSH fragment, residues 9-13 (WGKPV; ends and bridges not checked; UniProt P01189 146-150, looked up, fragment)”, in the data set with fever, the antipyretic potency result is “almost devoid of activity”.

“10-13 sequence: α-MSH(11-13) with glycine added to form the 10-13 sequence (GKPV; ends and bridges not checked; UniProt P01189 147-150, looked up, fragment)”: in the data set on fever, the antipyretic potency entry is “slightly decreased potency”.

On to Ac-[D-K11]-α-MSH 11-13-NH2, for which the “general potency of α-MSH (11-13) stereochemical analogs” value in the data set on inflammation (relative to L-form tripeptide, kind of activity not given, cited Hiltz 1991 anti-inflammatory activity) was “same general potency as the L-form”.

Turning to MEHFRWG [α-MSH sequence (4-10)], the anti-inflammatory activity entry with inflammation is given as “little”. In addition, the antipyretic activity result with fever is reported as “little”.

Turning to [Nle^4,D-Phe^7]-α-MSH, the “potency in reducing fever” value with fever (relative to the parent peptide α-MSH) was “approximately ten times more potent”.

Regarding lysine-proline-valine [KPV], the anti-inflammatory activity entry with inflammation is reported as “parallel those of the parent molecule”. In the data set with fever, the antipyretic activity entry is reported as “parallel those of the parent molecule”.
